US20230124862A1, “BISMUTH THIOL COMPOUNDS AND COMPOSITIONS AND METHODS OF TREATING MICROBIAL CO-INFECTIONS” (Microbion Corporation, priority 2020, published 2023)
Values after ≈ are worked out from the molar mass of the structure shown. Where two headings read alike, the source gives them in different places.

Key:
[1] = system: Achromobacter spp. biofilm; assay: Activity against biofilms; assay type: cell-based; conditions: tested up to 250 μg/mL
Excerpt: A dose response is also apparently associated with both compounds (FIG. 21).

S. aureus = assay: Broth microdilution MIC (Example 11); assay type: cell-based, Staphylococcus aureus
Enterococcus spp. = assay: Broth microdilution MIC (Example 11); assay type: cell-based, E. faecalis, E. faecium; conditions: Enterococcus, VRE, enterococci incl. VRE; read-out: MIC values
[2] = system: C. parapsilosis ATCC 22019; assay: Antifungal broth microdilution (Example 13), QC organism; assay type: cell-based, Candida parapsilosis; conditions: 24 hr, first of two values x/y (footnote b not given, presumably MIC2)
physchem = assay type: physicochemical
[3] = assay type: in vivo, patients; conditions: end of treatment (Week 2-3), test of cure (Week 4-5), end of study (Week 8-9)
[4] = system: MucilAir fully differentiated human airway epithelium
CYP = conditions: liver microsome (CYP) and hepatocyte
[5] = system: Gram-negative organisms (P. aeruginosa, E. coli, A. baumannii, H. influenzae); conditions: cited from earlier work
S. aureus ATCC 29213 = conditions: CLSI established QC range; cited from earlier work
P. aeruginosa [6] = assay: Broth microdilution MIC (Example 10); assay type: cell-based, Pseudomonas aeruginosa; conditions: initial MIC testing
[7] = system: Burkholderia cepacia complex; assay type: cell-based, Burkholderia spp.; conditions: initial MIC testing
P. aeruginosa [8] = assay: Checkerboard FIC/FICI assay; assay type: cell-based, Pseudomonas aeruginosa; conditions: during FIC testing
[9] = system: Burkholderia cepacia complex; assay: Checkerboard FIC/FICI assay; assay type: cell-based, Burkholderia spp.; conditions: during FIC testing
Escherichia coli = assay: Broth microdilution MIC (Example 12); assay type: cell-based
Klebsiella pneumoniae = assay: Broth microdilution MIC (Example 12); assay type: cell-based
Acinetobacter baumannii = assay: Broth microdilution MIC (Example 12); assay type: cell-based

CC(S)C(C)S.[Bi] (centres unmarked) [BisBDT, bismuth-2,3-butanedithiol]
reduction in viable biofilm cells [1]: 5 log | MIC (S. aureus; S. aureus MMX 5373, MRSA, Lev^R Cip^R CC^R Ery^R Ox^R): ≤0.06 µg/mL | MIC (S. aureus; S. aureus MMX 6311, MRSA, Lev^R Cip^R CC^R Ery^R Ox^R): ≤0.06 µg/mL | MIC (S. aureus; S. aureus MMX 9204, MRSA, Lev^R Cip^R Ery^R Ox^R): ≤0.06 µg/mL | MIC (S. aureus; S. aureus MMX 9205, MRSA, Lev^R Cip^R CC^R Ery^R Ox^R): ≤0.06 µg/mL | MIC (S. aureus; Staphylococcus aureus, ATCC 29213 / MSSA): ≤ 0.06 µg/mL | MIC (Enterococcus spp.): 0.25 to 1 µg/mL | MIC 24 hr [2]: 1 µg/mL

C1C[S][Bi]([S]CC[S][Bi]2[S]CC[S]2)[S]1 [BisEDT, Bismuth-1,2-ethanedithiol]
solubility (physchem): < 5 µg/mL | proportion of subjects with >50% reduction in wound surface area from baseline vs placebo [3]: A larger proportion | TEER ([4]; BisEDT in solution 0.001-30 μM, all time points): didn't show significant effect | TEER ([4]; solid, 1 μg/cm^2, 8, 24 and 48H): Loss of tissue integrity | TEER ([4]; solid, 1 μg/cm^2, 1 hour): no significant effect | TEER ([4]; solid, 0.033 and 0.33 μg/cm^2, all time points): No significant effect | TEER ([4]; solid, all tested doses, 1 hour exposure): no significant effect | effect on liver cell metabolism (inhibition or induction of standard substrates) (CYP): no significant effect | CLSI acceptable MIC QC range ([5]; H. Influenzae ATCC 49247): (0.015-0.06) μg/mL | CLSI acceptable MIC QC range ([5]; P. aeruginosa ATCC 27853): 0.5 to 4 µg/mL | QC range of MIC (S. aureus ATCC 29213): (0.12-1) μg/mL

C[C@@H](O)[C@H]1C(=O)N2C(C(=O)O)=C(S[C@@H]3CN[C@H](C(=O)N(C)C)C3)[C@H](C)[C@H]12 [MEM]
MIC (P. aeruginosa [6]; P. aeruginosa isolate 103, QC strain): 1 µg/mL (≈ 2.61 µM) | MIC (P. aeruginosa [6]; P. aeruginosa isolate 1497 (TOB-R AMK-R, CIP-I, AZT-R, COL-R)): 0.06 µg/mL (≈ 0.156 µM) | MIC (P. aeruginosa [6]; P. aeruginosa isolate 1530 (TOB-R, AMK-R, CIP-R)): 0.5 µg/mL (≈ 1.3 µM) | MIC (P. aeruginosa [6]; P. aeruginosa isolate 1553 (TOB-R, AMK-R, CIP-R)): 0.5 µg/mL (≈ 1.3 µM) | MIC (P. aeruginosa [6]; P. aeruginosa isolate 6322 (MEM-R, TOB-R, AMK-R, CIP-R, AZT-R)): 16 µg/mL (≈ 41.7 µM) | MIC (P. aeruginosa [6]; P. aeruginosa isolate 6977 (MEM-I, TOB-R, CIP-R, AZT-I)): 4 µg/mL (≈ 10.4 µM) | MIC (P. aeruginosa [6]; P. aeruginosa isolate 7745 (MEM-R, CIP-R, AZT-R)): 16 µg/mL (≈ 41.7 µM) | MIC (P. aeruginosa [6]; P. aeruginosa isolate 7754 (MEM-R, TOB-R, CIP-R, AZT-I)): 32 µg/mL (≈ 83.4 µM) | MIC (P. aeruginosa [6]; P. aeruginosa isolate 7762 (MEM-I, CIP-I)): 4 µg/mL (≈ 10.4 µM) | MIC (P. aeruginosa [6]; P. aeruginosa isolate 7871 (MEM-R, AZT-I)): 8 µg/mL (≈ 20.9 µM) | MIC (P. aeruginosa [6]; P. aeruginosa isolate 7874): 1 µg/mL (≈ 2.61 µM) | MIC (P. aeruginosa [6]; P. aeruginosa isolate 7886 (MEM-R, CIP-R, AZT-R)): 32 µg/mL (≈ 83.4 µM) | MIC (P. aeruginosa [6]; P. aeruginosa isolate 8797 (MEM-R, TOB-R, AMK-R, CIP-R, AZT-R, COL-R)): 32 µg/mL (≈ 83.4 µM) | MIC (P. aeruginosa [6]; P. aeruginosa isolate 8798 (MEM-R, TOB-R, AMK-R, CIP-R, AZT-R, COL-R)): 64 µg/mL (≈ 167 µM) | MIC (P. aeruginosa [6]; P. aeruginosa isolate 9108 (CIP-R, AZT-I)): 0.5 µg/mL (≈ 1.3 µM) | MIC ([7]; B. cenocepacia isolate 0548 (CIP-R)): 4 µg/mL (≈ 10.4 µM) | MIC ([7]; B. cenocepacia isolate 0813 (CPI-I)): 2 µg/mL (≈ 5.22 µM) | MIC ([7]; B. cenocepacia isolate 1631): 4 µg/mL (≈ 10.4 µM) | MIC ([7]; B. cenocepacia isolate 1783): 4 µg/mL (≈ 10.4 µM) | MIC ([7]; B. cenocepacia isolate 8555): 4 µg/mL (≈ 10.4 µM) | MIC ([7]; B. cepacia isolate 0546): 4 µg/mL (≈ 10.4 µM) | MIC ([7]; B. cepacia isolate 0547): 2 µg/mL (≈ 5.22 µM) | MIC ([7]; B. cepacia isolate 1793): 4 µg/mL (≈ 10.4 µM) | MIC ([7]; B. cepacia isolate 1794): 4 µg/mL (≈ 10.4 µM) | MIC ([7]; B. cepacia isolate 9040): 4 µg/mL (≈ 10.4 µM) | MIC ([7]; B. multivorans isolate 1580 (CIP-R)): 2 µg/mL (≈ 5.22 µM) | MIC ([7]; B. multivorans isolate 1791): 4 µg/mL (≈ 10.4 µM) | MIC ([7]; B. multivorans isolate 1795 (MEM-I, CIP-R)): 8 µg/mL (≈ 20.9 µM) | MIC ([7]; B. multivorans isolate 5665 (CIP-I)): 2 µg/mL (≈ 5.22 µM) | MIC ([7]; B. multivorans isolate 8952 (CIP-I)): 2 µg/mL (≈ 5.22 µM) | MIC (P. aeruginosa [8]; isolate 103 (ATCC 25922), each agent tested alone for QC, one replicate): 1 µg/mL | MIC (P. aeruginosa [8]; isolate 6322): 16 µg/mL | MIC (P. aeruginosa [8]; isolate 6977): 8 µg/mL | MIC (P. aeruginosa [8]; isolate 7745): 16 µg/mL | MIC (P. aeruginosa [8]; isolate 8798): 32 µg/mL | MIC ([9]; B. cenocepacia isolate 0548): 4 µg/mL | MIC ([9]; B. cenocepacia isolate 0813): 9 µg/mL | MIC ([9]; B. cepacia isolate 0546): 4 µg/mL | MIC ([9]; B. cepacia isolate 1793): 4 µg/mL | MIC ([9]; B. multivorans isolate 1795): 4 µg/mL | MIC (Escherichia coli; E. coli ATCC 25922, ATCC QC organism (Table 102)): ≤0.008 µg/mL | MIC (Escherichia coli; E. coli ATCC 35218, ATCC QC organism (Table 102)): ≤0.008 µg/mL | MIC (Escherichia coli; E. coli ATCC 35218, ESBL): ≤0.008 µg/mL | MIC (Escherichia coli; E. coli ATCC BAA-2471, NDM): >8 µg/mL | MIC (Escherichia coli; E. coli CDC 114, ESBL/KPC): 2 µg/mL (≈ 5.22 µM) | MIC (Escherichia coli; E. coli CDC 118, ESBL/NDM): 0.06 µg/mL (≈ 0.156 µM) | MIC (Escherichia coli; E. coli CDC 435, NDM): >8 µg/mL | MIC (Escherichia coli; E. coli CDC 451, KPC): 1 µg/mL (≈ 2.61 µM) | MIC (Escherichia coli; E. coli CDC 503, ESBL/NDM): 8 µg/mL (≈ 20.9 µM) | MIC (Escherichia coli; E. coli MMX 5745, KPC): 2 µg/mL (≈ 5.22 µM) | MIC (Escherichia coli; E. coli MMX 5755, ESBL): 0.015 µg/mL (≈ 0.0391 µM) | MIC (Escherichia coli; E. coli MMX 5756, ESBL): ≤0.008 µg/mL | MIC (Escherichia coli; E. coli MMX 5758, ESBL): ≤0.008 µg/mL | MIC (Klebsiella pneumoniae; K. pneumoniae ATCC BAA-1705, ATCC QC organism (Table 102)): 8 µg/mL (≈ 20.9 µM) | MIC (Klebsiella pneumoniae; K. pneumoniae ATCC BAA-1705, ESBL/KPC): 8 µg/mL (≈ 20.9 µM) | MIC (Klebsiella pneumoniae; K. pneumoniae CDC 112, KPC): >8 µg/mL | MIC (Klebsiella pneumoniae; K. pneumoniae CDC 113, ESBL/KPC): >8 µg/mL | MIC (Klebsiella pneumoniae; K. pneumoniae CDC 115, ESBL/KPC): >8 µg/mL | MIC (Klebsiella pneumoniae; K. pneumoniae CDC 120, ESBL/KPC): >8 µg/mL | MIC (Klebsiella pneumoniae; K. pneumoniae CDC 126, ESBL/KPC): 4 µg/mL (≈ 10.4 µM) | MIC (Klebsiella pneumoniae; K. pneumoniae CDC 129, ESBL/KPC): 8 µg/mL (≈ 20.9 µM) | MIC (Klebsiella pneumoniae; K. pneumoniae CDC 135, ESBL/VIM): 1 µg/mL (≈ 2.61 µM) | MIC (Klebsiella pneumoniae; K. pneumoniae CDC 138, ESBL/NDM): >8 µg/mL | MIC (Klebsiella pneumoniae; K. pneumoniae CDC 158, ESBL/NDM/OXA): >8 µg/mL | MIC (Klebsiella pneumoniae; K. pneumoniae MMX 9029, ESBL): 0.015 µg/mL (≈ 0.0391 µM) | MIC (Acinetobacter baumannii; A. baumannii CDC 273, ESBL/OXA): >8 µg/mL | MIC (Acinetobacter baumannii; A. baumannii CDC 274, ESBL/OXA): >8 µg/mL | MIC (Acinetobacter baumannii; A. baumannii CDC 275, ESBL/OXA): >8 µg/mL | MIC (Acinetobacter baumannii; A. baumannii CDC 277, ESBL/OXA): >8 µg/mL | MIC (Acinetobacter baumannii; A. baumannii CDC 284, ESBL/OXA): >8 µg/mL | MIC (Acinetobacter baumannii; A. baumannii CDC 307, OXA): 8 µg/mL (≈ 20.9 µM) | MIC (Acinetobacter baumannii; A. baumannii CDC 308, ESBL/OXA): 8 µg/mL (≈ 20.9 µM) | MIC (Acinetobacter baumannii; A. baumannii CDC 311, OXA): >8 µg/mL | MIC (Acinetobacter baumannii; A. baumannii CDC 312, OXA): 4 µg/mL (≈ 10.4 µM) | MIC (Acinetobacter baumannii; A. baumannii CDC 313, ESBL/OXA): >8 µg/mL | MIC (Acinetobacter baumannii; A. baumannii NCTC 13304, OXA): >8 µg/mL
